In this test the test system is MX-1 breast xenograft, nude mice, tumor weight T/C. As to the kind of experiment: NCI In Vivo Anticancer Drug Screen. Data for tumor model Human Mammary Carcinoma MX-1 Xenograft (intrarenal inoculation) in NU/NU Swiss (nude) mice. The note with it: endpoint: mean tumor weight change, higher = larger tumour. As to the method:
The antitumor activity of compounds was measured in mice bearing transplantable tumors. Survival or tumor size were measured and the results are expressed as the measurement made in the treated group (T) divided by the measurement made in the vehicle treated control group (C). The tumor model used in this assay is Human Mammary Carcinoma MX-1 Xenograft (intrarenal inoculation) in NU/NU Swiss (nude) mice

Setting [1] is: dose: 300.0 mg/kg/injection, schedule: Q04DX003 (sc), vehicle: saline with Tween-80.
Where [2] appears, read: dose: 600.0 mg/kg/injection, schedule: Q04DX003 (sc), vehicle: saline with Tween-80.
Setting [3] is: dose: 1200.0 mg/kg/injection, schedule: Q04DX003 (sc), vehicle: saline with Tween-80.
Where [4] appears, read: dose: 2400.0 mg/kg/injection, schedule: Q04DX003 (sc), vehicle: saline with Tween-80.
Setting [5] is: dose: 100.0 mg/kg/injection, schedule: Q01DX010 (sc), vehicle: saline.
The mark [6] stands for this setting: dose: 200.0 mg/kg/injection, schedule: Q01DX010 (sc), vehicle: saline.
Where [7] appears, read: dose: 300.0 mg/kg/injection, schedule: Q04DX003 (sc), vehicle: Klucel (hydroxypropylcellulose) (HPC).
[8] abbreviates: dose: 600.0 mg/kg/injection, schedule: Q04DX003 (sc), vehicle: Klucel (hydroxypropylcellulose) (HPC).
Where [9] appears, read: dose: 1200.0 mg/kg/injection, schedule: Q04DX003 (sc), vehicle: Klucel (hydroxypropylcellulose) (HPC).
Where [10] appears, read: dose: 75.0 mg/kg/injection, schedule: Q04DX003 (sc), vehicle: suspension in saline.
Setting [11] is: dose: 150.0 mg/kg/injection, schedule: Q04DX003 (sc), vehicle: suspension in saline.
Where [12] appears, read: dose: 150.0 mg/kg/injection, schedule: Q04DX003 (sc), vehicle: Klucel (hydroxypropylcellulose) (HPC).

“And” between values parts separate entries of the source, which are not always exact repeats. Equal entries are not always repeated. Records with an inconclusive call do not appear.

`CC(C)CCCCCCCCCCCCC(=O)NCC(=O)NC1C(O)C(O)C(Nc2ncnc3nc[nH]c23)OC1C(O)CO` (configuration not stated): the T/C is 158 % of control (dose: 0.31 mg/kg/injection, schedule: Q01DX010 (sc), vehicle: saline); 194 % of control (dose: 0.4 mg/kg/injection, schedule: Q01DX010 (sc), vehicle: saline); 105 % of control (dose: 0.63 mg/kg/injection, schedule: Q01DX010 (sc), vehicle: saline); 93 % of control (dose: 0.8 mg/kg/injection, schedule: Q01DX010 (sc), vehicle: saline); 80 % of control (dose: 1.25 mg/kg/injection, schedule: Q01DX010 (sc), vehicle: saline); 40 % of control (dose: 1.6 mg/kg/injection, schedule: Q01DX010 (sc), vehicle: saline).

On to `COc1cc([C@@H]2c3cc4c(cc3[C@@H](OC3OC5COC(C)OC5C(O)C3O)[C@H]3COC(=O)[C@H]23)OCO4)cc(OC)c1O` (some centres not stated), for which the T/C was 72 % of control (dose: 2.0 mg/kg/injection, schedule: Q01DX010 (sc), vehicle: saline); 97 % of control (dose: 4.0 mg/kg/injection, schedule: Q01DX010 (sc), vehicle: saline); 51 % of control (dose: 8.0 mg/kg/injection, schedule: Q01DX010 (sc), vehicle: saline); 72 % of control (dose: 16.0 mg/kg/injection, schedule: Q01DX010 (sc), vehicle: saline).

`COc1c(O)c2c(c3cc(C(=O)N4CCc5c4c(O)c(OC)c4[nH]c(C(=O)N6CC7CC78C6=CC(=O)c6[nH]cc(C)c68)cc54)[nH]c13)CCN2C(N)=O` (configuration not stated): the T/C (dose: 2.5 mg/kg/injection, schedule: Q01DX010 (sc), vehicle: DMSO) was 37 % of control; the T/C (dose: 5.0 mg/kg/injection, schedule: Q01DX010 (sc), vehicle: DMSO) is 82 % of control; the T/C (dose: 10.0 mg/kg/injection, schedule: Q01DX010 (sc), vehicle: DMSO) was 1 % of control; the T/C (dose: 6.25 micrograms/kg/injection, schedule: Q01DX010 (sc), vehicle: DMSO) was 63 % of control; the T/C (dose: 12.5 micrograms/kg/injection, schedule: Q01DX010 (sc), vehicle: DMSO) is 53 % of control; the T/C (dose: 25.0 micrograms/kg/injection, schedule: Q01DX010 (sc), vehicle: DMSO) was 68 % of control. Also, the T/C is, setting by setting: (dose: 50.0 micrograms/kg/injection, schedule: Q01DX010 (sc), vehicle: DMSO) 90 % of control; (dose: 100.0 micrograms/kg/injection, schedule: Q01DX010 (sc), vehicle: DMSO) 85 % of control; (dose: 400.0 micrograms/kg/injection, schedule: Q01DX010 (sc), vehicle: DMSO) 117 % of control.

Take `CCCCCCC(=O)CC(SCC)c1ccccc1Cl` (configuration not stated): the T/C by setting is: under setting [1], 75 % of control; under setting [2], 88 % of control; under setting [3], 72 % of control; under setting [4], 96 % of control.

As for `C1CN2CN3CCN(CN1C3)C2`, the T/C runs as follows: under setting [5], 114 % of control; under setting [6], 97 % of control.

Take `CCOC(=O)C1(c2ccccc2)C(=O)Oc2ccccc21` (configuration not stated): the T/C is, setting by setting: under setting [1], 99 % of control; under setting [2], 103 % of control; under setting [3], 101 % of control; under setting [4], 99 % of control.

Regarding `CC(C)(C)c1ccc(CN2CCN(C(c3ccccc3)c3ccc(Cl)cc3)CC2)cc1` (configuration not stated), the T/C by setting is: (dose: 4.5 mg/kg/injection, schedule: Q01DX010 (sc), vehicle: Klucel (hydroxypropylcellulose) (HPC)) 96 % of control; (dose: 9.0 mg/kg/injection, schedule: Q01DX010 (sc), vehicle: Klucel (hydroxypropylcellulose) (HPC)) 101 % of control; (dose: 18.0 mg/kg/injection, schedule: Q01DX010 (sc), vehicle: Klucel (hydroxypropylcellulose) (HPC)) 117 % of control; (dose: 36.0 mg/kg/injection, schedule: Q01DX010 (sc), vehicle: Klucel (hydroxypropylcellulose) (HPC)) 101 % of control; under setting [7], 102 % of control; under setting [8], 106 % of control. Moreover, the T/C under setting [9] was 100 % of control.

As for `Oc1ccc(SCc2ccc(NCc3ccccc3)cc2)cc1`, the T/C is 104 % of control (dose: 25.0 mg/kg/injection, schedule: Q01DX010 (sc), vehicle: saline with Tween-80); 46 % of control (dose: 50.0 mg/kg/injection, schedule: Q01DX010 (sc), vehicle: saline with Tween-80); 92 % of control (dose: 100.0 mg/kg/injection, schedule: Q01DX010 (sc), vehicle: saline with Tween-80); 74 % of control (dose: 200.0 mg/kg/injection, schedule: Q01DX010 (sc), vehicle: saline with Tween-80); 55 % of control (dose: 400.0 mg/kg/injection, schedule: Q01DX010 (sc), vehicle: saline with Tween-80); 94 % of control (dose: 800.0 mg/kg/injection, schedule: Q01DX010 (sc), vehicle: saline with Tween-80).

In the case of `COC1=NCN=C2SC=C(N)N=C12`, the T/C reads like this: (dose: 37.5 mg/kg/injection, schedule: Q04DX003 (sc), vehicle: suspension in saline) 50 % of control; under setting [10], 30 % of control; under setting [11], 43 % of control.

Consider `Cc1c(N)nc([C@H](CC(N)=O)NC[C@H](N)C(N)=O)nc1C(=O)N[C@H](C(=O)N[C@H](C)[C@@H](O)CC(=O)N[C@H](C(=O)NC(O[C@@H]1O[C@@H](C)[C@@H](N)[C@@H](O)[C@H]1O)C(O)c1nc(-c2nc(C(=O)NCCCCN)cs2)cs1)[C@@H](C)O)[C@@H](O[C@@H]1O[C@@H](CO)[C@@H](O)[C@H](O)[C@@H]1O[C@H]1O[C@H](CO)[C@@H](O)[C@H](OC(N)=O)[C@@H]1O)c1c[nH]cn1` (some centres not stated), for which the T/C was 120 % of control (dose: 4.0 mg/kg/injection, schedule: Q04DX003 (sc), vehicle: saline); 64 % of control (dose: 8.0 mg/kg/injection, schedule: Q04DX003 (sc), vehicle: saline); 64 % of control (dose: 16.0 mg/kg/injection, schedule: Q04DX003 (sc), vehicle: saline); 47 % of control (dose: 32.0 mg/kg/injection, schedule: Q04DX003 (sc), vehicle: saline).

For `CN1CCN(CCCN2c3ccccc3Sc3ccc(C(F)(F)F)cc32)CC1`, the T/C is 107 % of control (dose: 25.0 mg/kg/injection, schedule: Q01DX010 (sc), vehicle: saline); 61 % of control and 73 % of control (dose: 50.0 mg/kg/injection, schedule: Q01DX010 (sc), vehicle: saline); 31 % of control and 52 % of control under setting [5]; 32 % of control under setting [6].

For `Nc1ncnc2c(C3OC(CO)C(O)C3O)[nH]nc12` (configuration not stated), the T/C runs as follows: (dose: 75.0 mg/kg/injection, schedule: Q04DX003 (sc), vehicle: Klucel (hydroxypropylcellulose) (HPC)) -100 % of control; under setting [10], 5 % of control; under setting [12], -100 % of control; under setting [11], 5 % of control; (dose: 300.0 mg/kg/injection, schedule: Q04DX003 (sc), vehicle: suspension in saline) -79 % of control.

`Cc1cc(NC(=S)SCc2ccc3c(c2)OCO3)ccc1Cl`: the T/C runs as follows: under setting [12], 106 % of control; under setting [7], 104 % of control; under setting [8], 118 % of control; under setting [9], 88 % of control.

These data come from PubChem BioAssay AID296 (DTP/NCI, 2004).
